In the CheMixHub viscosity set:
± gives the uncertainty stated by the source.

Experiment: xn = mol fraction of the nth substance listed
Conditions: 100 kPa

NCCCN + OCCOCCOCCO
viscosity [mPa·s]
Conditions | 293.15 K | 298.15 K | 303.15 K | 308.15 K | 313.15 K | 318.15 K
x2 = 0.0253 | 2.31 ± 0.03 | 2.01 ± 0.03 | – | 1.64 ± 0.03 | 1.46 ± 0.03 | 1.23 ± 0.03
x2 = 0.052 | 2.82 ± 0.03 | 2.42 ± 0.03 | 2.1 ± 0.03 | 1.9 ± 0.03 | 1.74 ± 0.03 | 1.45 ± 0.03
x2 = 0.0801 | 3.56 ± 0.04 | 3.07 ± 0.03 | 2.62 ± 0.03 | 2.28 ± 0.03 | 2.06 ± 0.03 | 1.69 ± 0.03
x2 = 0.1098 | 4.41 ± 0.04 | 3.74 ± 0.04 | 3.15 ± 0.03 | 2.72 ± 0.03 | 2.47 ± 0.03 | 2.02 ± 0.03
x2 = 0.1412 | 5.52 ± 0.04 | 4.68 ± 0.04 | 3.91 ± 0.04 | 3.33 ± 0.04 | 3 ± 0.03 | 2.43 ± 0.03
x2 = 0.1746 | 7.09 ± 0.05 | 5.97 ± 0.05 | 4.92 ± 0.04 | 4.16 ± 0.04 | 3.72 ± 0.04 | 2.99 ± 0.03
x2 = 0.21 | 8.97 ± 0.06 | 7.46 ± 0.05 | 6.09 ± 0.05 | 5.1 ± 0.04 | 4.54 ± 0.04 | 3.69 ± 0.04
x2 = 0.2476 | 11.9 ± 0.1 | 9.77 ± 0.06 | 7.87 ± 0.05 | 6.52 ± 0.05 | 5.7 ± 0.04 | 4.51 ± 0.04
x2 = 0.2877 | 15.8 ± 0.1 | 12.8 ± 0.1 | 10.1 ± 0.1 | 8.27 ± 0.05 | 7.16 ± 0.05 | 5.6 ± 0.04
x2 = 0.3305 | 21.6 ± 0.1 | 17.1 ± 0.1 | 13.3 ± 0.1 | 10.7 ± 0.1 | 9.13 ± 0.06 | 7.02 ± 0.05
x2 = 0.3762 | 29.3 ± 0.2 | 22.8 ± 0.1 | 17.5 ± 0.1 | 13.8 ± 0.1 | 11.6 ± 0.1 | 8.8 ± 0.06
x2 = 0.4254 | 38.8 ± 0.2 | 29.7 ± 0.2 | 22.5 ± 0.1 | 17.5 ± 0.1 | 14.6 ± 0.1 | 11 ± 0.1
x2 = 0.4782 | 50.2 ± 0.2 | 37.8 ± 0.2 | 28.3 ± 0.2 | 21.7 ± 0.1 | 17.9 ± 0.1 | 13.3 ± 0.1
x2 = 0.5352 | 59.8 ± 0.3 | 44.5 ± 0.2 | 33.2 ± 0.2 | 25.5 ± 0.1 | 20.8 ± 0.1 | 15.2 ± 0.1
x2 = 0.5969 | 70.2 ± 0.5 | 52.2 ± 0.2 | 38.6 ± 0.2 | 29.2 ± 0.2 | 23.7 ± 0.1 | 17.3 ± 0.1
x2 = 0.6638 | 72.7 ± 0.5 | 54.6 ± 0.2 | 40.6 ± 0.2 | 30.9 ± 0.2 | 25.2 ± 0.1 | 18.5 ± 0.1
x2 = 0.7366 | 72.1 ± 0.5 | 54.3 ± 0.2 | 40.7 ± 0.2 | 31.2 ± 0.2 | 25.7 ± 0.1 | 19.1 ± 0.1
x2 = 0.8162 | 66.3 ± 0.4 | 50.6 ± 0.2 | 38.4 ± 0.2 | 29.7 ± 0.2 | 24.7 ± 0.1 | 18.6 ± 0.1
x2 = 0.9036 | 57.9 ± 0.2 | 44.7 ± 0.2 | 34.3 ± 0.2 | 26.8 ± 0.1 | 22.5 ± 0.1 | 17.2 ± 0.1
